Columns and labels:
[1] = target: T1, human PTEFb (CDK9/Cyclin T1) (Homo sapiens, UniProt P50750); test: Surface plasmon resonance PTEFb; assay type: binding; details: SPR; for koff: read-out: Dissociation rate constant koff; for Target resident time: 1/koff
T1 construct: purchased ProQinase, Freiburg, Germany
From the text: 8. Surface Plasmon Resonance PTEFb
The term “surface plasmon resonance”, as used herein, refers to an optical phenomenon that allows for the analysis of the reversible associations of biological molecules in real time within a biosensor matrix, for example using the Biacore® system (GE Healthcare Biosciences, Uppsala, Sweden). Biacore® uses the optical properties of surface plasmon resonance (SPR) to detect alterations in the refractive index of a buffer, which changes as molecules in solution interact with the target immobilized on the surface. In brief, proteins are covalently bound to the dextran matrix at a known concentration and a ligand for the protein is injected through the dextran matrix. Near infrared light, directed onto the opposite side of the sensor chip surface is reflected and also induces an evanescent wave in the gold film, which in turn, causes an intensity dip in the reflected light at a particular angle known as the resonance angle. If the refractive index of the sensor chip surface is altered (e.g. by compound binding to the bound protein) a shift occurs in the resonance angle. This angle shift can be measured.
The term “KD”, as used herein, is intended to refer to the equilibrium dissociation constant of a particular compound/target protein complex.
The term “koff”, as used herein, is intended to refer to the off-rate, i.e. the dissociation rate constant of a particular compound/target protein complex.
The term “target residence time”, as used herein, is intended to refer to the inverse of the rate of dissociation rate constant (1/koff) of a particular compound/target protein complex.
The ability of the compounds according to the invention to bind human PTEFb may be determined using surface plasmon resonance (SPR). KD values and koff values may be measured using a Biacore® T200 instrument (GE Healthcare, Uppsala, Sweden).
For SPR measurements, recombinant human PTEFb (CDK9/Cyclin T1 recombinant human active protein kinase purchased from ProQinase, Freiburg, Germany) is immobilized using standard amine coupling (Johnsson B et al, Anal Biochem. 1991 Nov. 1; 198(2):268-77). Briefly, carboxymethylated dextran biosensor chips (CM7, GE Healthcare) are activated with N-ethyl-N′-(3-dimethylaminopropyl)-carbodiimide hydrochloride (EDC) and N-hydroxysuccinimide (NHS) according to the supplier's instructions. Human PTEFb is diluted in 1×HBS-EP+(GE Healthcare) into 30 μg/ml and injected on the activated chip surface. Subsequently, a 1:1 solution of 1 M ethanolamine-HCl (GE Healthcare) and 1×HBS-EP is injected to block unreacted groups, resulting in approximately 4000 response units (RU) of immobilized protein. A reference surface is generated by treatment with NHS-EDC and ethanolamine-HCl. Compounds are dissolved in 100% dimethylsulfoxide (DMSO, Sigma-Aldrich, Germany) to a concentration of 10 mM and subsequently diluted in running buffer (1×HBS-EP+pH 7.4 [generated from HBS-EP+Buffer 10× (GE Healthcare): 0.1 M HEPES, 1.5 M NaCl, 30 mM EDTA and 0.5% v/v Surfactant P20], 1% v/v DMSO). For kinetic measurements, four-fold serial dilutions of compound (0.39 nM to 100 nM) are injected over immobilized protein. Binding kinetics is measured at 25° C. with a flow rate of 50 μl/min in running buffer. Compound concentrations are injected for 60 s followed by a dissociation time of 1800 s. The resulting sensorgrams are double-referenced against the reference surface as well as against blank injections.
The double-referenced sensorgrams are fit to a simple reversible Langmuir 1:1 reaction mechanism as implemented in the Biacore® T200 evaluation software 2.0 (GE Healthcare). In cases were full compound dissociation has not occurred at the end of the dissociation phase, the Rmax parameter (response at saturation) is fit as local variable. In all other cases, Rmax is fit as global variable.

Caco-2 permeation assay = assay type: in vitro ADME; details: human, pH 7.2, Caco-2 monolayer, 2 μM test compound; for Papp A→B at 2 h, 2 μM: read-out: Papp A-B (Mari); for Papp B→A at 2 h, 2 μM: read-out: Papp B-A (Mari); for efflux ratio at 2 h, 2 μM: read-out: Efflux ratio (Papp B-A/Papp A-B)
Protocol: 5. Caco-2 Permeation Assay:
Caco-2 cells (purchased from DSMZ Braunschweig, Germany) were seeded at a density of 4.5×10^4 cells per well on 24 well insert plates, 0.4 μm pore size, and grown for 15 days in DMEM medium supplemented with 10% fetal bovine serum, 1% GlutaMAX (100×, GIBCO), 100 U/mL penicillin, 100 μg/mL streptomycin (GIBCO) and 1% non essential amino acids (100×). Cells were maintained at 37° C. in a humidified 5% CO2 atmosphere. Medium was changed every 2-3 day. Before running the permeation assay, the culture medium was replaced by a FCS-free hepes-carbonate transport buffer (pH 7.2). For assessment of monolayer integrity the transepithelial electrical resistance (TEER) was measured. Test compounds were predissolved in DMSO and added either to the apical or basolateral compartment in final concentration of 2 μM in transport buffer. Before and after 2 h incubation at 37° C. samples were taken from both compartments. Analysis of compound content was done after precipitation with methanol by LC/MS/MS analysis. Permeability (Papp) was calculated in the apical to basolateral (A→B) and basolateral to apical (B→A) directions. The apparent permeability was calculated using following equation: Papp=(Vr/Po)(1/S)(P2/t) Where Vr is the volume of medium in the receiver chamber, Po is the measured peak area or height of the test drug in the donor chamber at t=o, S the surface area of the monolayer, P2 is the measured peak area of the test drug in the acceptor chamber after 2 h of incubation, and t is the incubation time. The efflux ratio basolateral (B) to apical (A) was calculated by dividing the Papp B-A by the Papp A-B. In addition the compound recovery was calculated.

[2] = 25° C., below 5E-5 s^-1 not resolvable

T1 sequence (P50750 whole entry): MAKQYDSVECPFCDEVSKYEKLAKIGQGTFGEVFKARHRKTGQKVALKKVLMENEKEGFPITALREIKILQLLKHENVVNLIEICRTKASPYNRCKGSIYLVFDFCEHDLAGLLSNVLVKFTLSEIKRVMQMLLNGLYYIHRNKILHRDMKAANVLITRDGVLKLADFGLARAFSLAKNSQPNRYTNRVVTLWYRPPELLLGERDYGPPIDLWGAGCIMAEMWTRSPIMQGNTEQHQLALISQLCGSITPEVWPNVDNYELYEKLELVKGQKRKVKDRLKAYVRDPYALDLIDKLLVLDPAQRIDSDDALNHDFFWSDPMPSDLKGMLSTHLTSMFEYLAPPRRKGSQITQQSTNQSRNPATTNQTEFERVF
T1 sequence (O60563 whole entry partner): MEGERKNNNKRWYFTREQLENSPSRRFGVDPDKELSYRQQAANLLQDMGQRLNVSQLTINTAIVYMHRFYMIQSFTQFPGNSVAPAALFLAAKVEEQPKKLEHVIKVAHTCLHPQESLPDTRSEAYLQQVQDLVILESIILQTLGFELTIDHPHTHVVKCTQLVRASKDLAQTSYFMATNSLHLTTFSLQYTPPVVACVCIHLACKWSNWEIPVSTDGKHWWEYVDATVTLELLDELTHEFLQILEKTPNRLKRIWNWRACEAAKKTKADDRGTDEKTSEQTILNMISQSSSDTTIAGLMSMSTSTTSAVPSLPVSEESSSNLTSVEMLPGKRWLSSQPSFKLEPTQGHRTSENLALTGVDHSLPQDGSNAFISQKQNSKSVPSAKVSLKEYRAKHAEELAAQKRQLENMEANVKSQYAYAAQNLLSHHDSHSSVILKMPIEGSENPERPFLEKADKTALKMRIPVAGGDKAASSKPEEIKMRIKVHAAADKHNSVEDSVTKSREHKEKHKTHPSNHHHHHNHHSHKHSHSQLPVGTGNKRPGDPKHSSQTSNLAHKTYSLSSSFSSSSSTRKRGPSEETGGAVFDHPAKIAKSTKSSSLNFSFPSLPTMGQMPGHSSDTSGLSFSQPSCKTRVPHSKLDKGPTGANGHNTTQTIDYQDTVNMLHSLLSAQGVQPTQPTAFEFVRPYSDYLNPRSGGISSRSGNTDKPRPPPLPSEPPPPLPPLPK

Row | SMILES | koff [1, 2] | Target resident time [1] | Papp A→B at 2 h, 2 μM (Caco-2 permeation assay) | Papp B→A at 2 h, 2 μM (Caco-2 permeation assay) | efflux ratio at 2 h, 2 μM (Caco-2 permeation assay) | Dissociation rate constant koff [1, 2]
1 | C[S+]([O-])Cc1cc2nc(c1)OCCCOc1cc(F)ccc1-c1cc(ncc1F)N2 (racemic) [Example 4, (rac)-15,19-Difluoro-8-[(methylsulfinyl)methyl]-3,4-dihydro-2H,11H-10,6-(azeno)-12,16-(metheno)-1,5,11,13-benzodioxadiazacyclooctadecine] | < 5e-05 s⁻¹ | >333 min |  |  |  | 
2 | C[S+]([O-])Cc1cc2nc(c1)OCCOc1cc(F)ccc1-c1cc(ncc1F)N2 (racemic) [Example 10, (rac)-14,18-difluoro-7-[(methylsulfinyl)methyl]-2,3-dihydro-10H-9,5-(azeno)-11,15-(metheno)-1,4,10,12-benzodioxadiazacycloheptadecine] | 0.00245 s⁻¹ | 6.8 min |  |  |  | 
3 | CS(=N)(=O)Cc1cc2nc(c1)OCCOc1cc(F)ccc1-c1cc(ncc1F)N2 (racemic) [Example 11, (rac)-14,18-difluoro-7-[(S-methylsulfonimidoyl)methyl]-2,3-dihydro-10H-9,5-(azeno)-11,15-(metheno)-1,4,10,12-benzodioxadiazacycloheptadecine] | 0.0029 s⁻¹ | 5.7 min |  |  |  | 
4 | C[S+]([O-])Cc1cc2nc(c1)OCCCCOc1cc(F)ccc1-c1cc(ncc1F)N2 (racemic) [Example 13, (rac)-16,20-difluoro-9-[(methylsulfinyl)methyl]-2,3,4,5-tetrahydro-12H-11,7-(azeno)-13,17-(metheno)-1,6,12,14-benzodioxadiazacyclononadecine] | < 5e-05 s⁻¹ | >333 min |  |  |  | 
5 | CS(=N)(=O)Cc1cc2nc(c1)OCCCCOc1cc(F)ccc1-c1cc(ncc1F)N2 (racemic) [Example 14, (rac)-16,20-difluoro-9-[(S-methylsulfonimidoyl)methyl]-2,3,4,5-tetrahydro-12H-11,7-(azeno)-13,17-(metheno)-1,6,12,14-benzodioxadiazacyclononadecine] | < 5e-05 s⁻¹ | >333 min |  |  |  | 
6 | CS(=N)(=O)Cc1cc2cc(c1)OCCCOc1cc(F)ccc1-c1nc(ncc1F)N2 (racemic) [Example 15, (rac)-15,19-difluoro-8-[(S-methylsulfonimidoyl)methyl]-3,4-dihydro-2H,11H-12,16-(azeno)-10,6-(metheno)-1,5,11,13-benzodioxadiazacyclooctadecine] | < 5e-05 s⁻¹ | >333 min |  |  |  | 
7 | CS(=O)(Cc1cc2cc(c1)OCCCOc1cc(F)ccc1-c1nc(ncc1F)N2)=NC(=O)C(F)(F)F (racemic) [Example 16, (rac)-N-[{[15,19-difluoro-3,4-dihydro-2H,11H-12,16-(azeno)-10,6-(metheno)-1,5,11,13-benzodioxadiazacyclooctadecin-8-yl]methyl}(methyl)oxido-λ^6-sulfanylidene]-2,2,2-trifluoroacetamide] | < 5e-05 s⁻¹ | >333 min |  |  |  | 
8 | CCNC(=O)N=S(C)(=O)Cc1cc2nc(c1)OCCCOc1cc(F)ccc1-c1cc(ncc1F)N2 (racemic) [Example 17, (rac)-1-[{[15,19-difluoro-3,4-dihydro-2H,11H-10,6-(azeno)-12,16-(metheno)-1,5,11,13-benzodioxadiazacyclooctadecin-8-yl]methyl}(methyl)oxido-λ^6-sulfanylidene]-3-ethylurea] |  |  | 8.7 ×10⁻⁶ cm/s | 8.8 ×10⁻⁶ cm/s | 1 | 
9 | CS(=O)(=O)N=S(C)(=O)Cc1cc2nc(c1)OCCCOc1cc(F)ccc1-c1cc(ncc1F)N2 (racemic) [Example 22, (rac)-N-[{[15,19-difluoro-3,4-dihydro-2H,11H-10,6-(azeno)-12,16-(metheno)-1,5,11,13-benzodioxadiazacyclooctadecin-8-yl]methyl}(methyl)oxido-λ^6-sulfanylidene]methanesulfonamide] |  |  | 8.2 ×10⁻⁶ cm/s | 12.6 ×10⁻⁶ cm/s | 1.5 | 
10 | CS(=O)(Cc1cc2nc(c1)OCCCOc1cc(F)ccc1-c1cc(ncc1F)N2)=NS(=O)(=O)CCN (racemic) [Example 23, (rac)-2-amino-N-[{[15,19-difluoro-3,4-dihydro-2H,11H-10,6-(azeno)-12,16-(metheno)-1,5,11,13-benzodioxadiazacyclooctadecin-8-yl]methyl}(methyl)oxido-λ^6-sulfanylidene]ethanesulfonamide] |  |  | 0.6 ×10⁻⁶ cm/s | 44.2 ×10⁻⁶ cm/s | 69.7 | 
11 | CS(=N)(=O)Cc1cc2nc(c1)OCCCOc1cc(F)ccc1-c1cc(ncc1F)N2 (single isomer, unassigned; enantiomer 1) [Example 6, 15,19-Difluoro-8-[(S-methylsulfonimidoyl)methyl]-3,4-dihydro-2H,11H-10,6-(azeno)-12,16-(metheno)-1,5,11,13-benzodioxadiazacyclooctadecine; Enantiomer 1] | < 5e-05 s⁻¹ | >333 min |  |  |  | 
12 | CS(=N)(=O)Cc1cc2nc(c1)OCCCOc1cc(F)ccc1-c1cc(ncc1F)N2 (single isomer, unassigned; enantiomer 2) [Example 7, 15,19-Difluoro-8-[(S-methylsulfonimidoyl)methyl]-3,4-dihydro-2H,11H-10,6-(azeno)-12,16-(metheno)-1,5,11,13-benzodioxadiazacyclooctadecine; Enantiomer 2] |  | >333 min |  |  |  | < 5e-05 s⁻¹
13 | CSCc1cc2nc(c1)OCCCOc1cc(F)ccc1-c1cc(ncc1F)N2 [Example 3, 15,19-Difluoro-8-[(methylsulfanyl)methyl]-3,4-dihydro-2H,11H-10,6-(azeno)-12,16-(metheno)-1,5,11,13-benzodioxadiazacyclooctadecine] | < 5e-05 s⁻¹ | >333 min |  |  |  | 
14 | CSCc1cc2nc(c1)OCCOc1cc(F)ccc1-c1cc(ncc1F)N2 [Example 9, 14,18-Difluoro-7-[(methylsulfanyl)methyl]-2,3-dihydro-10H-9,5-(azeno)-11,15-(metheno)-1,4,10,12-benzodioxadiazacycloheptadecine] | 0.00024 s⁻¹ | 69.4 min |  |  |  | 
15 | CSCc1cc2nc(c1)OCCCCOc1cc(F)ccc1-c1cc(ncc1F)N2 [Example 12, 16,20-Difluoro-9-[(methylsulfanyl)methyl]-2,3,4,5-tetrahydro-12H-11,7-(azeno)-13,17-(metheno)-1,6,12,14-benzodioxadiazacyclononadecine] | < 5e-05 s⁻¹ | >333 min |  |  |  | 

— patent US9963464B2, “Macrocyclic compounds” (Bayer Pharma Aktiengesellschaft, priority 2014, dated 2018)
